Read-outs that look alike come from different tables or passages of the source.
What was measured:
human DNA polymerase α = target: T1, human DNA polymerase α (Homo sapiens, UniProt P09884); experiment: Human DNA polymerase inhibition, alpha; type: biochemical; details: for remaining activity at 100 µM: read-out: % Control at 100 μM ± S.D.
T1 construct: Mammalian DNA polymerases alpha, beta, gamma, and delta were partially purified from K562 celles; endogenous in cells; host or cells: K562 (chronic myelogenous leukemia tissue culture line)
Source text: (§1) Viral DNA polymerases (HSV-1, HSV-2, EBV) were purified by previously published methods (Derce, D. K. F. Bastow, and Y. C. Cheng (1982) J. Boil. Chem. 257:10251-10260; Ostrander, M., and Y. C. Cheng (1980) Biochim. Biophys. Acta 609:232-245; Tan, R. S., A. Datta. and Y. C. Cheng (1982) J. Virol. 44:893-899). These procedures generally included sequential chromatography on DEAE-cellulose. HIV reverse transcriptase was purified by antibody affinity column chromatography as descrbed (Starnes. M. C. and Y. C. Cheng (1989) J. Biol. Chem. 264:7073-7077). The purified enzymes were dialyzed against and stored in 50 mM Tris-HCl (pH 7.5) containing 1 mM each of DTT, EDTA and PMSF plus 30% glycerol. Mammalian DNA polymerases alpha, beta, gamma, and delta were partially purified from K562 celles (chronic myelogenous leukemia tissue culture line). Briefly, washed cell pellets were extracted and passed throgh DEAE-cellulose in the presence of 300 mM KPO4 (pH 7.5) as previously described (Starnes, M. C., and Y. C. Cheng (1987) J. Biol. Chem 282:988-981) to remove DNA. The column flow-through fractions were dialyzed against buffer which contained 50 mM Tris-HCl (pH 7.5), and fractionated on a single-stranded DNA-cellulose column with a 0-1M KCl gradient.
(§2) In accordance with the teaching of the present invention similar enzyme inhibition assays were also conducted with respect to mammalian enzymes, more particularly, human DNA polymerase.

HV-6 polymerase = HV-6 polymerase (Human herpesvirus 6A, UniProt P28857); experiment: Viral polymerase inhibition, HV-6; type: biochemical, Herpes Virus 6
human DNA polymerase γ = target: T2, human DNA polymerase γ (Homo sapiens, UniProt P54098); experiment: Human DNA polymerase inhibition, gamma; type: biochemical; details: for remaining activity at 100 µM: read-out: % Control at 100 μM ± S.D.
T2 construct: Mammalian DNA polymerases alpha, beta, gamma, and delta were partially purified from K562 celles; endogenous in cells; host or cells: K562 (chronic myelogenous leukemia tissue culture line)
T2 sequence (P54098 26-1239 limits assumed): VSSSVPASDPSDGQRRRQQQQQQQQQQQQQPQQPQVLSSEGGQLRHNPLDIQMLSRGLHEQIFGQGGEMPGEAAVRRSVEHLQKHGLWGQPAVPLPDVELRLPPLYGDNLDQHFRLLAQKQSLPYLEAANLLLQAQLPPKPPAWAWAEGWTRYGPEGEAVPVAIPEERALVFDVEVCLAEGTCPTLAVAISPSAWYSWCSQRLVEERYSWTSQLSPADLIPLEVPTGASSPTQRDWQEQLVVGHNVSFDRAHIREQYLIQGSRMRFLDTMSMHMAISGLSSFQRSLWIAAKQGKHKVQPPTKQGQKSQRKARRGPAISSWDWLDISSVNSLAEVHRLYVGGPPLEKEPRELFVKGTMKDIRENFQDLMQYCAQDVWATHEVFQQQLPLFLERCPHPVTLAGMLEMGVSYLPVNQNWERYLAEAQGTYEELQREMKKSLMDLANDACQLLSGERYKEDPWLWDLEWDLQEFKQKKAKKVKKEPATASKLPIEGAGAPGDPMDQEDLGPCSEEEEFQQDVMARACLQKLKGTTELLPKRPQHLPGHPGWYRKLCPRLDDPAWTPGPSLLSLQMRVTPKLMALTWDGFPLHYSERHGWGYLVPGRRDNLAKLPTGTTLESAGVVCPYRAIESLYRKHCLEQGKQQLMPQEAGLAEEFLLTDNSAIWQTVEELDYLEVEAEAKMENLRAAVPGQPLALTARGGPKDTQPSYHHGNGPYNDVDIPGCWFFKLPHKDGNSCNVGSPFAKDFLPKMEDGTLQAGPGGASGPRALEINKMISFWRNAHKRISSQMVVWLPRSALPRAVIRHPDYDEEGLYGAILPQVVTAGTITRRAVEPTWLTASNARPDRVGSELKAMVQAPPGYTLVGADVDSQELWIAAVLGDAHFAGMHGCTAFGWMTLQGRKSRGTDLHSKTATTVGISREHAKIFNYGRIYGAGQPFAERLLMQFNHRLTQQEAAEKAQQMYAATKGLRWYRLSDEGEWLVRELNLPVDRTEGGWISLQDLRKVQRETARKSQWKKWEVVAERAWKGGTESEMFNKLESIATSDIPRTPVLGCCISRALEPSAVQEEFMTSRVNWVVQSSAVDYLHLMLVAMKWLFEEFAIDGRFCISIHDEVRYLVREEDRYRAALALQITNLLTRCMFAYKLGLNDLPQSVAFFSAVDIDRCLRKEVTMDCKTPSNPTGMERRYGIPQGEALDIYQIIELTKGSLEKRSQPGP
T2 sequence (Q9UHN1 25-485 partner limits assumed): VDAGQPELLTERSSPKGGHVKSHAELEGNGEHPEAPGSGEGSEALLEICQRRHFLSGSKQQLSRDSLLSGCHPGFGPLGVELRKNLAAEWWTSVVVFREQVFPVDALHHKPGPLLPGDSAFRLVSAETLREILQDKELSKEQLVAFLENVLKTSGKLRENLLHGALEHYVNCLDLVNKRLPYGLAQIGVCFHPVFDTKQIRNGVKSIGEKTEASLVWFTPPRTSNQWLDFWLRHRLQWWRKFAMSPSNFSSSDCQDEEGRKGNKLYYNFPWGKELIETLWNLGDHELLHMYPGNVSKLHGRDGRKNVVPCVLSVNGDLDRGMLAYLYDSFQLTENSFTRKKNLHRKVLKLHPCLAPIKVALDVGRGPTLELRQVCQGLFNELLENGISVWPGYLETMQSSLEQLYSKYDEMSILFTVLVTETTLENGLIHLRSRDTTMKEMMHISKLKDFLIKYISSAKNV
Source text: as §1, §2

human DNA polymerase β = target: T3, human DNA polymerase β (Homo sapiens, UniProt P06746); experiment: Human DNA polymerase inhibition, beta; type: biochemical; details: for remaining activity at 100 µM: read-out: % Control at 100 μM ± S.D.
T3 construct: Mammalian DNA polymerases alpha, beta, gamma, and delta were partially purified from K562 celles; endogenous in cells; host or cells: K562 (chronic myelogenous leukemia tissue culture line)
Source text: as §1, §2

Sequence of HV-6 polymerase (P28857 whole entry): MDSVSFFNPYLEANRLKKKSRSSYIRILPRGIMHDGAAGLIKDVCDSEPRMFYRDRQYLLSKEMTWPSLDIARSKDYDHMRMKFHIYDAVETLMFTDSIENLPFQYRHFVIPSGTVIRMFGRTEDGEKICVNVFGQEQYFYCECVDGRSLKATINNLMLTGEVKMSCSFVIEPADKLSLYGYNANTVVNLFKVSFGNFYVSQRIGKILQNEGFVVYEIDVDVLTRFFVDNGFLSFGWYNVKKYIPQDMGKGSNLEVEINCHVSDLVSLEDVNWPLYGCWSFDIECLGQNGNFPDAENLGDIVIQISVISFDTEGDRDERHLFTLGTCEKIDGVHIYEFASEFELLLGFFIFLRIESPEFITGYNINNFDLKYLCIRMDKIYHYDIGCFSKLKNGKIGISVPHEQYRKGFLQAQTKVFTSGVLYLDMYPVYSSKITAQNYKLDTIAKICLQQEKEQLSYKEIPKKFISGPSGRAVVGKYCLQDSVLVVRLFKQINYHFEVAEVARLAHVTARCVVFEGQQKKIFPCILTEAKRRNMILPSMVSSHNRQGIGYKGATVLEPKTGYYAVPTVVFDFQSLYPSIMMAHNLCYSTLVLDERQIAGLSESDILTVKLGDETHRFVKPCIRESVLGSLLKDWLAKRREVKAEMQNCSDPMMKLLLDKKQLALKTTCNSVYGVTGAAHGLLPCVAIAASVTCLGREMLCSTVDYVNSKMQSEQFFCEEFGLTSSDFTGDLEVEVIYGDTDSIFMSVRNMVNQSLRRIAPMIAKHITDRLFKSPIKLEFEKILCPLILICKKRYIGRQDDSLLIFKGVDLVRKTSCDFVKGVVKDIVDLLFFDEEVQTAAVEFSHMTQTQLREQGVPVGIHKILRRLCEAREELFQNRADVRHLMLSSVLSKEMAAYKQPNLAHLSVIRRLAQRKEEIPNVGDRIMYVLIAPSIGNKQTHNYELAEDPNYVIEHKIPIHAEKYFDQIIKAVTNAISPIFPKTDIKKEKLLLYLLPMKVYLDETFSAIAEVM
T1 sequence (P09884 whole entry): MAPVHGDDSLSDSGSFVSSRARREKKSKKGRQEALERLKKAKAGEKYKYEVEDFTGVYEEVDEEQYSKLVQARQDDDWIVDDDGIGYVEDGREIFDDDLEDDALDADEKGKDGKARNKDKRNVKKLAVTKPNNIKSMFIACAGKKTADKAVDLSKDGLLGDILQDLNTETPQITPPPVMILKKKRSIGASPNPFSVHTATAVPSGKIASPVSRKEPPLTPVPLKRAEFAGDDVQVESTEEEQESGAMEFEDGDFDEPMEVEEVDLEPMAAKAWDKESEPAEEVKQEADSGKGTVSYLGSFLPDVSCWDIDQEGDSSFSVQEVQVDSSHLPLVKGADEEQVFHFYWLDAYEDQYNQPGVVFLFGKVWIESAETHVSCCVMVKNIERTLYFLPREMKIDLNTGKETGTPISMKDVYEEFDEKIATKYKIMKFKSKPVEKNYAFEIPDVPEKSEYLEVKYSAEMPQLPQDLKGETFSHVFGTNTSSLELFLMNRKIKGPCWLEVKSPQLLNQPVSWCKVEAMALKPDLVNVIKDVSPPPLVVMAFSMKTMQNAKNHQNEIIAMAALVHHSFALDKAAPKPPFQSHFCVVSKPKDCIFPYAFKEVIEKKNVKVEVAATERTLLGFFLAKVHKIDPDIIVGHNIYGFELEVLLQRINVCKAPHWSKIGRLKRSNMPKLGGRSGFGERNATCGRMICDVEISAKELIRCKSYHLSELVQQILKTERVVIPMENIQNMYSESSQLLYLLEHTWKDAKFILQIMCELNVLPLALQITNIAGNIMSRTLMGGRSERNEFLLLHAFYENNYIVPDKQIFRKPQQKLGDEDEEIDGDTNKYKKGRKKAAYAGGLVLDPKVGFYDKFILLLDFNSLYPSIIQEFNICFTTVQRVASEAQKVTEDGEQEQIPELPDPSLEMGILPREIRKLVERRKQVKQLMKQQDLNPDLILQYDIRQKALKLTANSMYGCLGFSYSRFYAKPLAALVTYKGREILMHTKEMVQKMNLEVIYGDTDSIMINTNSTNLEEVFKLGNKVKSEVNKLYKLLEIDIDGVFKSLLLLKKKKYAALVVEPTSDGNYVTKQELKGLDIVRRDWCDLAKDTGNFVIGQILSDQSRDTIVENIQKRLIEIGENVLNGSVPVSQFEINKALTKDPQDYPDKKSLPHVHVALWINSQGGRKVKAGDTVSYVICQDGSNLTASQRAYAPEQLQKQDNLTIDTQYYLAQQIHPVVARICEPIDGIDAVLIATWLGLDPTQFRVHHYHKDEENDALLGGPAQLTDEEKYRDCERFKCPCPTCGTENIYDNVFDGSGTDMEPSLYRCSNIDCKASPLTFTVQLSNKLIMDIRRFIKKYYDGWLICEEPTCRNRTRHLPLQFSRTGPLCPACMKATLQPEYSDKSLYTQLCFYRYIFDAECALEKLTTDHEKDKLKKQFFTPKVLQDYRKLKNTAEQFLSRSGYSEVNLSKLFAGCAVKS
T1 sequence (Q14181 whole entry partner): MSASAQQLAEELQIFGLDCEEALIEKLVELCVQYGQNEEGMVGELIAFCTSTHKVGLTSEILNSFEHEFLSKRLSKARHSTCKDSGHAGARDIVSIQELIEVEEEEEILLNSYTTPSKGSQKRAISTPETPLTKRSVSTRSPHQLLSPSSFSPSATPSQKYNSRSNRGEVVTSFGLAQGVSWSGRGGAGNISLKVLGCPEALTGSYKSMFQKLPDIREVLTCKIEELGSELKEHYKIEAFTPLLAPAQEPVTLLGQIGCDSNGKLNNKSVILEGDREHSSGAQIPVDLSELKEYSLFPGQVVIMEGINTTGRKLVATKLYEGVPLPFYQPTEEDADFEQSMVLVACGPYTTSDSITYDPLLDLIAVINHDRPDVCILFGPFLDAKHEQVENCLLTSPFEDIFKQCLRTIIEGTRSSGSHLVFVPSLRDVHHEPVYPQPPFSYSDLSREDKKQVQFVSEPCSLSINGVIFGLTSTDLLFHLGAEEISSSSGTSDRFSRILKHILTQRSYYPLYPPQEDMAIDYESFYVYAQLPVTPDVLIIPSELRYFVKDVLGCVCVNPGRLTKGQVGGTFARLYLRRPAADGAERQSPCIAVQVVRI
T1 sequence (P49642 whole entry partner): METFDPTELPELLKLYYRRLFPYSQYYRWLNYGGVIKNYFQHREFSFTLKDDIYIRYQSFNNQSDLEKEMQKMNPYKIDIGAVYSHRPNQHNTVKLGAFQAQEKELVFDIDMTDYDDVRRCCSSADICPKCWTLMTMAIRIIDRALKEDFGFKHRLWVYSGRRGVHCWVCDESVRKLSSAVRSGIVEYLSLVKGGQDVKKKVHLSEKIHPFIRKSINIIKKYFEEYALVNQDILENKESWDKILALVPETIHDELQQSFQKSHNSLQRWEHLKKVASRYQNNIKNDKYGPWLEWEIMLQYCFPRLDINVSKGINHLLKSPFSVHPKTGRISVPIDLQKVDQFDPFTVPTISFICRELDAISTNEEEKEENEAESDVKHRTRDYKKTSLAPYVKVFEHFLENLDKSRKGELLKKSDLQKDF
T1 sequence (P49643 whole entry partner): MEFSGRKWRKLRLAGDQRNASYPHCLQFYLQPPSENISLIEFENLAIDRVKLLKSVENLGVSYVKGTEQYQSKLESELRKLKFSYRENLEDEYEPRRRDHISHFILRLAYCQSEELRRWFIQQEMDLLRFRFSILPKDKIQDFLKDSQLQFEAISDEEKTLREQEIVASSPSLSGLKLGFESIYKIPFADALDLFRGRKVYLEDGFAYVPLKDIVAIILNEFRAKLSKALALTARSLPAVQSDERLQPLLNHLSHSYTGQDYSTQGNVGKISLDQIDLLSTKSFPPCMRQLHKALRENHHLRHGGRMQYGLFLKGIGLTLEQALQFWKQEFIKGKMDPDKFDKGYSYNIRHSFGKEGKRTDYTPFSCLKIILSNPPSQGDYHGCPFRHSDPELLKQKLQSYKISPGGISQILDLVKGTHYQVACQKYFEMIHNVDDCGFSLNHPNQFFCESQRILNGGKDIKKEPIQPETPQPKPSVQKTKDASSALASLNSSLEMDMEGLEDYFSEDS

O=C(O)P(O)(O)=S [TPFA, thiophosphonoformic acid]
IC50 (human DNA polymerase α): > 100 µM
toxicity to the human enzyme relative to PFA (therapeutic index) (human DNA polymerase α; HIV enzyme and human enzyme, Tables I and II): at a minimum, three times less toxic
fold less active against the human enzyme than against the HIV enzyme (therapeutic index) (human DNA polymerase α; human DNA polymerase vs HIV enzyme of Table I): greater than 100 fold
remaining activity at 100 µM (human DNA polymerase α): 72 ± 3%
IC50 (HV-6 polymerase): 70 µM
effectiveness of TPFA relative to PFA (HV-6 polymerase; Herpes Virus 6 enzyme, ratio of ID50 values of Table I): more than seventy times less effective
IC50 (human DNA polymerase γ): > 100 µM
remaining activity at 100 µM (human DNA polymerase γ): 75 ± 3%
IC50 (human DNA polymerase β): > 100 µM
remaining activity at 100 µM (human DNA polymerase β): 91 ± 4%

O=C(O)P(=O)(O)O [PFA, phosphonoformic acid]
remaining activity at 100 µM (human DNA polymerase α; Pol α, 100 μM, "activated" DNA): 16 ± 2%
IC50 (human DNA polymerase α; Pol α, "activated" DNA, read-out: ID50 (the source's name)): 31 µM
IC50 (HV-6 polymerase; HV-6, "activated" DNA, read-out: ID50 (the source's name)): 1 µM
remaining activity at 100 µM (human DNA polymerase γ; Pol γ, 100 μM, "activated" DNA): 55 ± 5%
IC50 (human DNA polymerase γ; Pol γ, "activated" DNA, read-out: ID50 (the source's name)): > 100 µM
remaining activity at 100 µM (human DNA polymerase β; Pol β, 100 μM, "activated" DNA): 89 ± 8%
IC50 (human DNA polymerase β; Pol β, "activated" DNA, read-out: ID50 (the source's name)): > 100 µM

— US5072032A, “Preparation and use of thiophosphonates and thio-analogues of phosphonoformic acid” (priority 1989, dated 1991)
